Results from patent publication US20160130224A1, “Novel Pyrrole Derivatives” (priority 2013, published 2016).
Structures can show the parent of a compound that is named as a salt. Where two headings read alike, the source gives them in different places.

Legend:
pneumolysin = pneumolysin (Streptococcus pneumoniae serotype 2, UniProt Q04IN8); test: Inhibition of the haemolytic activity of pneumolysin (sheep erythrocytes); format: cell-based
Description: The basis of this assay is that when pneumolysin is added to red blood cells, it induces their lysis and leads to the release of haemoglobin. In the presence of an inhibitory compound, pneumolysin-induced lysis is abolished, the red blood cells pellet at the bottom of the microtitre plate well and the supernatant is clear. However, if the compound is not inhibitory, the red blood cells are lysed and haemoglobin is released into the supernatant.
Test compound solutions (typically at 5 mM in DMSO) were diluted 1:1 in 100% DMSO. The compounds were then two-fold serially diluted in 100% DMSO across 11 wells of 96-well round-bottomed microtitre plate. PBS was then added to all the wells to achieve a 1:10 dilution of the compound in PBS. Pneumolysin was then added at a concentration equal to its LD100. Plates were then incubated at 37° C. for 30-40 min. After the incubation period, an equal volume of 4% (v/v) sheep erythrocyte suspension was added to each well and the plates incubated again at 37° C., for at least 30 min. Controls with only erythrocytes in PBS (control for no lysis) or erythrocytes plus pneumolysin (control for lysis) were prepared following the same procedure. Following the incubation with the erythrocytes, the Absorbance at 595 nm of each well was measured and the data used to determine the IC50 for each test compound. The IC50 values were determined using non-linear regression curve fitting. For that, the Log of the concentrations of the test compound was plotted against the percentage inhibition, estimated from the A595 values, followed by fitting a Hill Slope to the data.

[1] = Solubility testing in PBS or 0.9% saline; format: physicochemical; settings: for solubility: aqueous buffer, thermodynamic from solid, PBS
Description: Solubility studies were performed by charging a vial with 5-10 mg of compound followed by the 40 addition of PBS solution or 0.9% saline to achieve a concentration of 100 mg/ml. If solubility was not observed the solution was diluted to concentrations of 50 mg/ml, 25 mg/ml and 4 mg/ml consecutively until complete solubility was observed.

[2] = Chemical stability assessment in PBS at 37.5° C. (HPLC); format: physicochemical; settings: buffer, pH 6.2, read-out: Chemical stability at pH 6.2-7.2 (t1/2) (converted)
Description: (§1) Stability studies were carried out by dissolving 1-2 mg of compound in DMSO (1 mL) followed by addition of 0.4 mL of the resulting solution to stirred PBS solution (9.6 mL) at 37.5° C. A sample (ca. 0.5 mL) was immediately taken for HPLC analysis. Further samples were then taken for analysis at various timepoints thereafter. Half-lives were determined from the decrease in concentration of compound with respect to time.
as §1, with “performed” for “carried out”, “ml)” for “mL)”, “ml” for “mL”, “PBS” for “PBS solution”, “(˜0.5 ml)” for “(ca. 0.5 mL)”, “time-points” for “timepoints”

[3] = Conversion of prodrug to parent active compound in mouse plasma (LC-MS/MS); format: in vitro ADME; settings: 37° C., 10 μM start; for [ ] (μM) Prodrug remaining, t0 min.: 0 min; for [ ] (μM) Prodrug remaining, t15 min.: 15 min; for [ ] (μM) Prodrug remaining, t30 min.: 30 min; for [ ] (μM) Prodrug remaining, t60 min.: 60 min; for [ ] (μM) Prodrug remaining, t120 min.: 120 min
Description: (§2) The samples were then analysed by LC-MS/MS to obtain the amount of parent active compound appearing and prodrug derivative remaining over time.
(§3) Prodrug derivatives were assessed in the mouse, rat or human plasma stability assay at a concentration of 10 μM. Test compounds were diluted in DMSO to a final stock concentration of 10 mM. For the purpose of the assay, the stocks prepared were further diluted in DMSO to a concentration of 400 μM and 5 μL were added to 195 μL of mouse, rat or human plasma (pH 7.4) and then incubated at 37° C. The final concentration of DMSO in the plate was 2.5% (v/v). Reactions were terminated at 0, 15, 30, 60 and 120 min after incubation by adding 400 μl of acetonitrile containing 0.55 μM metoprolol and 1% (v/v) formic acid. The plate was then centrifuged at 3000 rpm, for 45 min, at 4° C. 80 μL of supernatant were transferred into a conical bottom 96 well glass coated plate. 40 μL of water were added prior to analysis for prodrug derivative and active species by LC-MS/MS. This assay was performed by a contract research organisation, Cyprotex Discovery Limited, UK, at the request of the inventors at Leicester.
(§4) (1) The parent active compound was quantified using a 6 point calibration curve prepared in deactivated mouse, rat or human plasma. (2) The percentage of prodrug compound remaining at each time point relative to 0 min sample was calculated from LC-MS/MS peak area ratios (compound peak area/internal standard peak area). This percentage was then used to determine the concentration of the prodrug compound at each time point in reference to the starting concentration (10 μM) at time 0 min.

[4] = Conversion of prodrug to parent active compound in rat plasma (LC-MS/MS); format: in vitro ADME; settings: 37° C., 10 μM start; for [ ] (μM) Prodrug remaining, t0 min.: 0 min; for [ ] (μM) Prodrug remaining, t15 min.: 15 min; for [ ] (μM) Prodrug remaining, t30 min.: 30 min; for [ ] (μM) Prodrug remaining, t60 min.: 60 min; for [ ] (μM) Prodrug remaining, t120 min.: 120 min
Description: as §2, §3, §4

[5] = Conversion of prodrug to parent active compound in human plasma (LC-MS/MS); format: in vitro ADME; settings: 37° C., 10 μM start; for [ ] (μM) Prodrug remaining, t0 min.: 0 min; for [ ] (μM) Prodrug remaining, t15 min.: 15 min; for [ ] (μM) Prodrug remaining, t30 min.: 30 min; for [ ] (μM) Prodrug remaining, t60 min.: 60 min
Description: as §2, §3, §4

Sequence of pneumolysin (Q04IN8 whole entry): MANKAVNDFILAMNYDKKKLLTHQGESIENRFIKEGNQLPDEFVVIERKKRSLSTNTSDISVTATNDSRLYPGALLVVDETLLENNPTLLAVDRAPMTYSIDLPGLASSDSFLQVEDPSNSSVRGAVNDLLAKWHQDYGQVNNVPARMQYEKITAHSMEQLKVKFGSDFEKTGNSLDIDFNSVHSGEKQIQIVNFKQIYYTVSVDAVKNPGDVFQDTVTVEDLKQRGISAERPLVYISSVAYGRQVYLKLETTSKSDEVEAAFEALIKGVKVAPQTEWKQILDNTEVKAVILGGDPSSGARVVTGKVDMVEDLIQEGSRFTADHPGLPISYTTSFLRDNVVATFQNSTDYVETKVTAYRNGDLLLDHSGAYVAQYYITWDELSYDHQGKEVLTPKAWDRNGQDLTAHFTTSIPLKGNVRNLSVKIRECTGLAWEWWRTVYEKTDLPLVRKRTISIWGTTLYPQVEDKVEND

SMILES | half-life [2] | IC50 (pneumolysin) | [ ] (μM) Prodrug remaining, t0 min. [3] | [ ] (μM) Prodrug remaining, t15 min. [3] | [ ] (μM) Prodrug remaining, t30 min. [3] | [ ] (μM) Prodrug remaining, t60 min. [3] | [ ] (μM) Prodrug remaining, t120 min. [3] | also measured
CCOC(=O)c1c(O)c(O)c(C(=O)N(C)C)n1-c1ccc(OC)cc1 [UL1-012, Ethyl 5-(dimethylcarbamoyl)-3,4-dihydroxy-1-(4-methoxyphenyl)-1H-pyrrole-2-carboxylate] | 1.02 h | – | – | – | – | – | – | IC50 (pneumolysin; Table 1, pneumolysin at LD100, sheep erythrocytes, 37° C., read-out: IC50): 200 nM; IC50 (pneumolysin; Table 2, pneumolysin at LD100, sheep erythrocytes, 37° C., read-out: IC50): 200 nM; Solubility in 0.9% (w/v) saline, pH 6.5 or PBS pH 7.2 ([1]; result in words): Not soluble
COc1ccc(-n2c(C(=O)N(C)C)c(O)c(O)c2C(=O)N2CCN(C)CC2)cc1 [UL1-027, 3,4-Dihydroxy-1-(4-methoxyphenyl)-N,N-dimethyl-5-(4-methylpiperazine-1-carbonyl)-1H-pyrrole-2-carboxamide] | – | 200 nM | – | – | – | – | – | –
COc1ccc(-n2c(C(=O)N(C)C)c(OC(=O)C(C)C)c(OC(=O)C(C)C)c2C(=O)N(C)C)cc1 [UL1-114, 2,5-Bis(dimethylcarbamoyl)-1-(4-methoxyphenyl)-1H-pyrrole-3,4-diyl bis(2-methylpropanoate)] | – | 19500 nM | – | – | – | – | – | –
COc1ccc(-n2c(C(=O)N(C)C)c(OC(=O)C(C)C)c(OC(=O)C(C)C)c2C(=O)N2CCN(C)CC2)cc1.Cl [UL6-002, 2-(Dimethylcarbamoyl)-1-(4-methoxyphenyl)-5-(4-methylpiperazine-1-carbonyl)-1H-pyrrole-3,4-diyl bis(2-methylpropanoate) hydrochloride] | – | 2000 nM | 10.00 µM | 0.00 µM | 0.00 µM | 0.02 µM | 0.00 µM | –
COc1ccc(-n2c(C(=O)N(C)C)c(OC(=O)C(C)(C)C)c(OC(=O)C(C)(C)C)c2C(=O)N2CCN(C)CC2)cc1 [UL6-004, 2-(Dimethylcarbamoyl)-1-(4-methoxyphenyl)-5-(4-methylpiperazine-1-carbonyl)-1H-pyrrole-3,4-diyl bis(2,2-dimethylpropanoate) hydrochloride] | – | 1600 nM | 10.00 µM | 10.00 µM | 9.88 µM | 9.80 µM | 9.63 µM | –
COc1ccc(-n2c(C(=O)N(C)C)c(OC(=O)c3cccc(COP(=O)(O)O)c3)c(OC(=O)c3cccc(COP(=O)(O)O)c3)c2C(=O)N(C)C)cc1.[Na+].[Na+] [UL6-006, Sodium ((((2,5-bis(dimethylcarbamoyl)-1-(4-methoxyphenyl)-1H-pyrrole-3,4-diyl)bis(oxy))bis(carbonyl))bis(3,1-phenylene))bis(methylene) bis(hydrogenphosphate)] | 29.5 h | 300 nM | 10.00 µM | 2.05 µM | 0.79 µM | 0.10 µM | 0.04 µM | solubility ([1]; pH 5-6): ≥ 50 mg/mL; [ ] (μM) Prodrug remaining, t0 min. [4]: 10.00 µM; [ ] (μM) Prodrug remaining, t15 min. [4]: 8.90 µM; [ ] (μM) Prodrug remaining, t30 min. [4]: 1.17 µM; [ ] (μM) Prodrug remaining, t60 min. [4]: 0.21 µM; [ ] (μM) Prodrug remaining, t120 min. [4]: 0.07 µM; [ ] (μM) Prodrug remaining, t0 min. [5]: 10.00 µM; [ ] (μM) Prodrug remaining, t15 min. [5]: 2.15 µM; [ ] (μM) Prodrug remaining, t30 min. [5]: 0.05 µM; [ ] (μM) Prodrug remaining, t60 min. [5]: 0.01 µM
CCOC(=O)c1c(OC(=O)c2ccc(COP(=O)([O-])O)cc2)c(OC(=O)c2ccc(COP(=O)([O-])O)cc2)c(C(=O)N(C)C)n1-c1ccc(OC)cc1.[Na+].[Na+] [UL6-008, Sodium ((((2-(dimethylcarbamoyl)-5-(ethoxycarbonyl)-1-(4-methoxyphenyl)-1H-pyrrole-3,4-diyl)bis(oxy))bis(carbonyl))bis(4,1-phenylene))bis(methylene) bis(hydrogenphosphate)] | 144 h | 1900 nM | 10.00 µM | 4.53 µM | 1.70 µM | 0.47 µM | 0.09 µM | solubility ([1]; pH 6): ≥ 100 mg/mL; [ ] (μM) Prodrug remaining, t0 min. [4]: 10.00 µM; [ ] (μM) Prodrug remaining, t15 min. [4]: 2.90 µM; [ ] (μM) Prodrug remaining, t30 min. [4]: 1.00 µM; [ ] (μM) Prodrug remaining, t60 min. [4]: 0.21 µM; [ ] (μM) Prodrug remaining, t120 min. [4]: 0.07 µM; [ ] (μM) Prodrug remaining, t0 min. [5]: 10.00 µM; [ ] (μM) Prodrug remaining, t15 min. [5]: 4.89 µM; [ ] (μM) Prodrug remaining, t30 min. [5]: 5.10 µM; [ ] (μM) Prodrug remaining, t60 min. [5]: 6.06 µM; [ ] (μM) Prodrug remaining, t120 min. ([5]; 120 min): 4.52 µM
